Measurements published in ChEMBL document CHEMBL1201862, “PubChem BioAssay data set” (2004).
The source made the active and inactive calls.

Experiments:
[1] = biological target: T1, Polyadenylate-binding protein 1 (Homo sapiens, UniProt P11940); assay: MLLE binding blockers, Cy5 peptide tracer – biochemical, fluorescence polarization, Cy5-PAM2 peptide, secondary, miRNA deadenylation inhibitor project, dose response (AID 602260); assay type: functional; details: read-out: IC50_Mean
[2] = biological target: T1, Polyadenylate-binding protein 1; assay: MLLE domain peptide-binding blockers, IC50 – biochemical, fluorescence polarization, FITC-PAM2 peptide, dose response (AID 602259); assay type: functional; details: read-out: IC50_Mean
[3] = biological target: Cytochrome P450 2C19 (Homo sapiens, UniProt P33261); assay: Cytochrome panel assay with activity outcomes. Panel member name: p450-cyp2c19 Compounds with AC50 equal or less than 10 uM are considered active; assay type: functional; details: read-out: AC50
[4] = biological target: T2, Cytochrome P450 2C9 (Homo sapiens, UniProt P11712)
[5] = biological target: T3, Cytochrome P450 1A2 (Homo sapiens, UniProt P05177);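 note: PubChem cytochrome P450 panel assay, CYP1A2 panel member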
T3 sequence (P05177 whole entry): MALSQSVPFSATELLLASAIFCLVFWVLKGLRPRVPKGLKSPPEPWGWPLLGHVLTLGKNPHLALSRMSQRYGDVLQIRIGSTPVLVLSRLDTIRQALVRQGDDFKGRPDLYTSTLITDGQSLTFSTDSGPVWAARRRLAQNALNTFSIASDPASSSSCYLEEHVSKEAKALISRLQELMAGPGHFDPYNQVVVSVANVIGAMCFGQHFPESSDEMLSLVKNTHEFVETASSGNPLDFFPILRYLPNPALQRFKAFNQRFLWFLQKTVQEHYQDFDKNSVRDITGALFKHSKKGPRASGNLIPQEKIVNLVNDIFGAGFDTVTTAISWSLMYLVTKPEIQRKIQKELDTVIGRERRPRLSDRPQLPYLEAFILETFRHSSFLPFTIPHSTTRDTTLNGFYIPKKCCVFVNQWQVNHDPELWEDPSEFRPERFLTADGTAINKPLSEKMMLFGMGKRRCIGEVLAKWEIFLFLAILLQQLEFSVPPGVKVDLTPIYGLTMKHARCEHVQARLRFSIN

[6] = biological target: Cytochrome P450 3A4 (Homo sapiens, UniProt P08684);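 note: CYP3A4 tested as one member of a cytochrome P450 panel screen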
[7] = biological target: T4, Fatty acid synthase (Homo sapiens, UniProt P49327); assay: inhibition of human FAS-TE enzyme activity – biochemical, kinetic fluorescence intensity, dose response (AID 624326); assay type: functional;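 note: rate of fluorescence rise from hydrolysis of a fluorogenic O-methyl fluorescein ester substrate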
[8] = biological target: T4, Fatty acid synthase; assay: inhibition of human FAS-TE enzyme activity – biochemical, endpoint fluorescence intensity, uHTS hits, dose response (AID 624327); assay type: functional;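 note: fluorescence from hydrolysis of an O-methyl fluorescein acyl ester substrate by the enzyme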
[9] = non-specific 3'UTR reporter inhibition in Clone20-Shn3RL – cell-based, Renilla luciferase, cherry-picked, counter-screen for Shn3 inhibitor project, dose response (AID 624133); assay type: functional
[10] = reduction of Shn3 3'UTR-driven luciferase in osteoblasts – cell-based, Clone20 osteoblasts, firefly luciferase, cherry-picked, dose response (AID 624132); assay type: functional;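 note: firefly luciferase luminescence from reporter carrying the Shn3 3'UTR in osteoblasts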
[11] = loss of viability in HepG2 cells – cell-based, CellTiter-Glo, cherry-picked, cytotoxicity control for Shn3 inhibitor project, dose response (AID 624134); assay type: functional
[12] = Luminescence Cell-Based Dose Retest to Confirm Inhibitors of Cancer Stem Cells. [Related pubchem assays (depositor defined):AID2717, AID2721]; assay type: functional; details: Homo sapiens
[13] = biological target: T5, Carboxy-terminal domain RNA polymerase II polypeptide A small phosphatase 1 (Homo sapiens, UniProt Q9GZU7); assay: CTDSP1 inhibitors, concentration-response, biochemical, absorbance readout, ultra-high-throughput screen actives (AID 540297); assay type: functional
T5 sequence (Q9GZU7 whole entry): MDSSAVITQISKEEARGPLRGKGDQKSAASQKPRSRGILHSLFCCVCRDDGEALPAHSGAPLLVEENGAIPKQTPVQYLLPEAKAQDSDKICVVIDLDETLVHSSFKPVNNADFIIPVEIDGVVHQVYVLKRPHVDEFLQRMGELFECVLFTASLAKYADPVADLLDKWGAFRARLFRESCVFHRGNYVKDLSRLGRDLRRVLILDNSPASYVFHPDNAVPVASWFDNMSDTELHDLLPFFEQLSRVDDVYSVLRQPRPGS

[14] = biological target: T2, Cytochrome P450 2C9; remark: listed apart in the source
[15] = biological target: Cytochrome P450 2D6 (Homo sapiens, UniProt P10635);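 note: CYP2D6 member of a cytochrome P450 panel assay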
[16] = biological target: Genome polyprotein (dengue virus type 2, UniProt P29990); assay: flavivirus cap methylation enzyme inhibition – biochemical, confirmation dose response, primary screen (AID 588689); assay type: functional
[17] = biological target: T6, Protein RecA (Mycobacterium tuberculosis, UniProt P9WHJ3); assay: Fluorescence Cell-Free Homogeneous Dose Retest to Identify Inhibitors of RecA-Intein Splicing Activity. [Related pubchem assays (depositor defined):AID2097, AID2223, AID489010, AID492950]; assay type: functional
T6 sequence (P9WHJ3 whole entry): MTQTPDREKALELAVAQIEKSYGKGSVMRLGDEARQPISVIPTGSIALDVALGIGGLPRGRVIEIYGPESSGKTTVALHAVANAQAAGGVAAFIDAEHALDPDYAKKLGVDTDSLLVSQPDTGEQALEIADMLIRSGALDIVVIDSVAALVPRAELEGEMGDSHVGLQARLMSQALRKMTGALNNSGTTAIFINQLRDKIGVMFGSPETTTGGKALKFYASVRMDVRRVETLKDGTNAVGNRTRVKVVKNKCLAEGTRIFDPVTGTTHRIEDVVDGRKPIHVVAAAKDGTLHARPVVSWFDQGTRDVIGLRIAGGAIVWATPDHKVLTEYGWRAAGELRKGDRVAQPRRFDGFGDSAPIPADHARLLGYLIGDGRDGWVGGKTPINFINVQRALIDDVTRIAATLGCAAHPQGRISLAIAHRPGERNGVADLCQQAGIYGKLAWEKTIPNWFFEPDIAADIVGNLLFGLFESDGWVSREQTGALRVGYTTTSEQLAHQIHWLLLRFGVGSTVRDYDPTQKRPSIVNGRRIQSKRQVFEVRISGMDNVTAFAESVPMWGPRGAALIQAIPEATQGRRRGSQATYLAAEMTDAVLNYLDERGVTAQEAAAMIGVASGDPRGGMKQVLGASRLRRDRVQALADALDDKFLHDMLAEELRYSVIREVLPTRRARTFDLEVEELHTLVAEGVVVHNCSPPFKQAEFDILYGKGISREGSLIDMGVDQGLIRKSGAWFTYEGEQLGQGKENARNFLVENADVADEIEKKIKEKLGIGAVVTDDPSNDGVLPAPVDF

[18] = P. falciparum Dd2 growth inhibitors, dose response, SYBR Green, cherry-picked samples (AID 1159567); assay type: functional, cell-based

Chain of Cytochrome P450 2C19 (P33261 whole entry): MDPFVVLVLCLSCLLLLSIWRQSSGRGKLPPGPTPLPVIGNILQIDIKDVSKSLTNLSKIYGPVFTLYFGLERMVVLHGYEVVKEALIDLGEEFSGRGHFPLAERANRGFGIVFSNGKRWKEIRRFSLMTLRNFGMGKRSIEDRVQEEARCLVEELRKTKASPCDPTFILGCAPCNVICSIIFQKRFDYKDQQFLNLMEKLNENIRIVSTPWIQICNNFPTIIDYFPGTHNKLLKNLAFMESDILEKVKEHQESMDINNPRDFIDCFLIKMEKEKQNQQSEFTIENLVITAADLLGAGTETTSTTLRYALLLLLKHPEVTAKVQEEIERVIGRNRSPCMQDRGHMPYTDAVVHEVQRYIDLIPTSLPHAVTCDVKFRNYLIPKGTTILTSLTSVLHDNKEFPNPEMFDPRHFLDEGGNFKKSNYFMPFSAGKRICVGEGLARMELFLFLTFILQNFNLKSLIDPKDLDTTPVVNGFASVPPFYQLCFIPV
T2 sequence (P11712 whole entry): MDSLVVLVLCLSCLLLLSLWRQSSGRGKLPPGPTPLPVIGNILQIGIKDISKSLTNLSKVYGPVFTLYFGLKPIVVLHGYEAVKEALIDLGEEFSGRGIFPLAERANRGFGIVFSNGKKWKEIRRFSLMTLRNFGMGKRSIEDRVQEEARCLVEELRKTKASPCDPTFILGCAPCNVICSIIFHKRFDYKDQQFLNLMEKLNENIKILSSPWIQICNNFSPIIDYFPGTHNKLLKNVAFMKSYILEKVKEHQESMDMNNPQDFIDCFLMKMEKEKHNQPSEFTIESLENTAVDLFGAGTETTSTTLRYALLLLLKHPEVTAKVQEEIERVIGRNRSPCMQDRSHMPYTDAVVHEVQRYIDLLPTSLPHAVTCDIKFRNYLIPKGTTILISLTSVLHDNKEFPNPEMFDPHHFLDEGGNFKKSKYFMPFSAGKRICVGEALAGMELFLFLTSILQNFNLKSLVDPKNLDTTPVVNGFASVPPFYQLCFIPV
T4 sequence (P49327 whole entry): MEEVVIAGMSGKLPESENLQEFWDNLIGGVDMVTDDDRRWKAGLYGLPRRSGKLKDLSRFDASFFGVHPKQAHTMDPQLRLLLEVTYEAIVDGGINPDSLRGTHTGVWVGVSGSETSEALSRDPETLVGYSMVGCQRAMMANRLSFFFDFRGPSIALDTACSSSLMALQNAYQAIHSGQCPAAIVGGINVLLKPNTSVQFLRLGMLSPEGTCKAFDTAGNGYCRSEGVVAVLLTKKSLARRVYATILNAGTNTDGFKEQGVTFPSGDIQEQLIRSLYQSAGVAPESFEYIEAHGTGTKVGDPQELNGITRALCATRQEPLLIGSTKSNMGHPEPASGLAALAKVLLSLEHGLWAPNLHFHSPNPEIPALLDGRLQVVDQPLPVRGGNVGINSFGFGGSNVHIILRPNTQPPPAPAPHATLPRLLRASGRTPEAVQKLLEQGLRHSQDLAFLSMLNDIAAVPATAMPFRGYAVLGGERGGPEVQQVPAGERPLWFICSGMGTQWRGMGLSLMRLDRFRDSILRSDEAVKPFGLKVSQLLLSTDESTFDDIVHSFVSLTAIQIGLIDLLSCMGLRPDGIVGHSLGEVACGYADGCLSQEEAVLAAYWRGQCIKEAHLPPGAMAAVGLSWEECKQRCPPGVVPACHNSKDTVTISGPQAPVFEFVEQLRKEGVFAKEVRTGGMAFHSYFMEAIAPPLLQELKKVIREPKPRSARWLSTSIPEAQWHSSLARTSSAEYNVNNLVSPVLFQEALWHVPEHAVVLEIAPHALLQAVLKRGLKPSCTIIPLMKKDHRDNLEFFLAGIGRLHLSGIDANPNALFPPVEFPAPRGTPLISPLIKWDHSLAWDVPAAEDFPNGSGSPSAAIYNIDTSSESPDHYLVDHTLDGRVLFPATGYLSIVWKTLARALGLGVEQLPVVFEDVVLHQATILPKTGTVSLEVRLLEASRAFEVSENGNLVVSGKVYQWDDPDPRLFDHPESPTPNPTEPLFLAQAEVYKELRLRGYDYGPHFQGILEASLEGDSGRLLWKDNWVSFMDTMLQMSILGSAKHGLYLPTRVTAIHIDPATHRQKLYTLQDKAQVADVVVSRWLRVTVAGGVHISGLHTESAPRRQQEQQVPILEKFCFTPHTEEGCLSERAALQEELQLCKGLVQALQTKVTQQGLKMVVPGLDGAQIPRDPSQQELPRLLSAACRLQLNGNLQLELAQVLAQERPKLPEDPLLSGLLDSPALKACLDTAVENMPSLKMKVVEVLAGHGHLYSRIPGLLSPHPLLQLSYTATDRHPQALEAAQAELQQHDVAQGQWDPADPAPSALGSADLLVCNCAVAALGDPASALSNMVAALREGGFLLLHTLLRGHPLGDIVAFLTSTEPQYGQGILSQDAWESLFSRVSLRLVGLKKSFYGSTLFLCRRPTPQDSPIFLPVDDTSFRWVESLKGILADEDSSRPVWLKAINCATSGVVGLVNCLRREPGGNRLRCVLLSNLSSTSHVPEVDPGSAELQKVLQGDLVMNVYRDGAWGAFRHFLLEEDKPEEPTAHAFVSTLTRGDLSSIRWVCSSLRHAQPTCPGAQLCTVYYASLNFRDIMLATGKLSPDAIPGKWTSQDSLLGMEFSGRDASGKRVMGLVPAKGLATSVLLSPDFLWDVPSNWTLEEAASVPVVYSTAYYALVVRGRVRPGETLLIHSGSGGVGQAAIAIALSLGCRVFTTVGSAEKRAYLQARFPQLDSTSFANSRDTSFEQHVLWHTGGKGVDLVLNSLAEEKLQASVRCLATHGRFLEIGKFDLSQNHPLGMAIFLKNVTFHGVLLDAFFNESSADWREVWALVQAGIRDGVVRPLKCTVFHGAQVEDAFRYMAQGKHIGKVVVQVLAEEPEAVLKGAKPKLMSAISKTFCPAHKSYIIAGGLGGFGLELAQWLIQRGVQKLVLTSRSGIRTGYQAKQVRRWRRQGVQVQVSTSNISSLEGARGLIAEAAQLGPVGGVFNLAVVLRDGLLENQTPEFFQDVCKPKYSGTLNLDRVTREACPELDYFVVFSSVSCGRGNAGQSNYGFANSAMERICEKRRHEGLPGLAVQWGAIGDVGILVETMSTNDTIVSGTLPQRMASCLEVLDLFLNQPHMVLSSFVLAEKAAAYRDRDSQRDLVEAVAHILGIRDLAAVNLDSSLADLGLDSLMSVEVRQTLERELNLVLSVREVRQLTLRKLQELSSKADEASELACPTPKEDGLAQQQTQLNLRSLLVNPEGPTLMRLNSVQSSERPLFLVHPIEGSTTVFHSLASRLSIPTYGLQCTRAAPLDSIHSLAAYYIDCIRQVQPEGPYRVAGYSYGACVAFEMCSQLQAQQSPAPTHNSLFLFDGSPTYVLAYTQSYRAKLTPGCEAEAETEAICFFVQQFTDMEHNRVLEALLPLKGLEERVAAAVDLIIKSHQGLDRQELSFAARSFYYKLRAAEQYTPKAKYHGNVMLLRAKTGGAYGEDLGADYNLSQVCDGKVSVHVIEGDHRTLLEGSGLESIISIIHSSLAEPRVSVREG
T1 sequence (P11940 whole entry, the tested form may be a part): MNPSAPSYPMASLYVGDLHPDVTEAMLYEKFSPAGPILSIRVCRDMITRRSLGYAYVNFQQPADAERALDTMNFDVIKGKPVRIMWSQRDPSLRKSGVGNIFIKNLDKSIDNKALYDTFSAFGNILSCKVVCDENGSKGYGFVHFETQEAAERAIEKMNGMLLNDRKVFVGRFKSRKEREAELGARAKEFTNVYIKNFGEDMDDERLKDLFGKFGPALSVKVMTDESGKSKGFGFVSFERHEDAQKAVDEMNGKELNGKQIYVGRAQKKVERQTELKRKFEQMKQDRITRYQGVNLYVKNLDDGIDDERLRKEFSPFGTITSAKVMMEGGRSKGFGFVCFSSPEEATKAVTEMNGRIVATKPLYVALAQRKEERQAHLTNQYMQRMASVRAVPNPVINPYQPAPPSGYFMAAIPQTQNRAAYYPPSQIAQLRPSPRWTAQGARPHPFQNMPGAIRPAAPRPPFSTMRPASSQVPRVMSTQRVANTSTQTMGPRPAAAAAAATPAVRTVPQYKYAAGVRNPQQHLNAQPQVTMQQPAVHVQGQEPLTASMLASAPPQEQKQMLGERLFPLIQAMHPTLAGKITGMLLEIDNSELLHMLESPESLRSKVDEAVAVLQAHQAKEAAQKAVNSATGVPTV
Chain of Cytochrome P450 3A4 (P08684 whole entry): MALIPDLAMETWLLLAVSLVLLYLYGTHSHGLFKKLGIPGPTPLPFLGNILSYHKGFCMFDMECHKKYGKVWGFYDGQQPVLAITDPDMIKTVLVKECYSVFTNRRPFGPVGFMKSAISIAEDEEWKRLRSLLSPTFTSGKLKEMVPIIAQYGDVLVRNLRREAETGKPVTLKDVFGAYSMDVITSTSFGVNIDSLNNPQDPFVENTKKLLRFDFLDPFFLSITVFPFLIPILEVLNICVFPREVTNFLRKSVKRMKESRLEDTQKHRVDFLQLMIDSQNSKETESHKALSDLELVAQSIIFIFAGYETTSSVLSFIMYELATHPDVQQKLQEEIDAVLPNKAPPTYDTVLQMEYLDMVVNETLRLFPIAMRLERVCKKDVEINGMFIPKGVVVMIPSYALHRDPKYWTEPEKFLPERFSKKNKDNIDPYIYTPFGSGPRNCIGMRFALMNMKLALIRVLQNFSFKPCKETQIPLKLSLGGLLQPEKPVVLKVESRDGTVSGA

CC(=O)c1c(S)nc(-c2ccccc2)nc1NC(=O)c1ccccc1
IC50 [1]: > 66 µM (inactive)
IC50 [2]: > 66 µM (inactive)

CCCCCCCC/C=C\CCCCCCCC(=O)N[C@@H](CO)Cc1ccc(O)cc1
AC50 [3]: 31.6 µM (inconclusive)
AC50 [4]: inconclusive
AC50 [5]: 25.1 µM (inconclusive)

O=c1cnc2cnc(N3CCOCC3)nc2n1C[C@H]1CCCO1
AC50 [4]: inconclusive
AC50 [6]: 15.8 µM (inconclusive)

CCn1c(C)c(C(C)=O)c(N2CCN(C(c3ccccc3)c3ccccc3)CC2)nc1=S
IC50 [7]: 23.1 µM (inactive)
IC50 [8]: 8.43 µM (active)

CC(C)C[C@@H](CO)N(Cc1ccccc1)S(=O)(=O)N(Cc1ccccc1)[C@@H](CO)CC(C)C
AC50 [9]: 31 µM (active)
AC50 [10]: 11.4 µM (active)
AC50 [11]: 21.9 µM (active)
AC50 [12]: 4.21 µM (active)

O=C(CN1C(=O)NC2(CCCC2)C1=O)OCc1cc(=O)n2cc(Br)ccc2n1
IC50 [13]: 6.81 µM (active)

CC(NC(=O)c1cccs1)C(S)c1ccccc1 (stereo not drawn)
IC50 [1]: > 66 µM (inactive)
IC50 [2]: > 66 µM (inactive)

O=C1Nc2cc(Cl)c(Cl)cc2N(O)N1c1ccc(Cl)c(Cl)c1
AC50 [3]: 28.2 µM (inconclusive)
AC50 [14]: 3.98 µM (inconclusive)
AC50 [6]: 39.8 µM (inconclusive)
IC50 [7]: 12 µM (active)
IC50 [8]: 6.59 µM (active)

CCNc1nc(NCC)n2c(SCC(=O)Nc3ccc(F)cc3)nnc2n1
IC50 [13]: 10.3 µM (active)

O=C(O)Cn1c2ccccc2c2nnc(S)nc21
IC50 [1]: > 66 µM (inactive)
IC50 [2]: > 66 µM (inactive)

Cc1cc(=O)oc2cc(NC(=O)c3cccc(F)c3)ccc12
IC50 [13]: 4.51 µM (active)

C=CCOc1ccc(CNC(C)(C)CO)cc1OCC.Cl
AC50 [4]: inconclusive

O=C(Cc1ccccc1[N+](=O)[O-])NCc1ccccc1Cl
AC50 [4]: inconclusive
AC50 [6]: 15.8 µM (inconclusive)
AC50 [15]: 15.8 µM (inconclusive)

C#CCOc1ccccc1/C=C1/C(=O)ON=C1C
IC50 [16]: > 100 µM (active)

COC(=O)CCC(=O)NNC(=O)CCCOc1ccc(Cl)cc1Cl
AC50 [3]: 3.55 µM (inconclusive)
AC50 [4]: inconclusive
AC50 [6]: 15.8 µM (inconclusive)

Cc1cccc(COCC(CC(C)C)N2CCN(C(=O)c3ccc(C(C)(C)C)cc3)CCC2=O)c1 (stereo not drawn)
IC50 [7]: 6.11 µM (active)
IC50 [8]: 8.21 µM (active)

COc1ccc(C2=NN(C(=O)CSc3nc(=O)n4cc(C)ccc4n3)C(c3ccc(C)cc3)C2)cc1 (stereo not drawn)
IC50 [7]: 12.9 µM (active)
IC50 [8]: 19.2 µM (active)

Cc1cc(C(=O)CSc2nc(N)cc(O)n2)c(C)n1-c1cccc(F)c1
AC50 [9]: 26.2 µM (active)
AC50 [10]: 1.66 µM (active)
AC50 [11]: > 70 µM (inactive)

NP(=O)(Oc1ccccc1Cl)Oc1ccccc1Cl
IC50 [7]: 8.31 µM (active)
IC50 [8]: 5.09 µM (active)

Cc1cc(C)cc(-n2nnnc2SCC(=O)Nc2nc(-c3ccc(F)cc3)cs2)c1
AC50 [3]: 5.01 µM (inconclusive)
AC50 [4]: inconclusive
AC50 [5]: 3.16 µM (inconclusive)

O=C(O)CC(NC(=O)CC(c1ccccc1)c1ccccc1)c1cccc([N+](=O)[O-])c1 (stereo not drawn)
IC50 [7]: 9.88 µM (active)
IC50 [8]: 7.88 µM (active)

Cc1sc(NC(=O)CCl)c(C(=O)c2ccccc2)c1C
IC50 [1]: > 66 µM (inactive)
IC50 [2]: > 66 µM (inactive)
EC50 [17]: 3.55 µM (active)

CN(C)Cc1ccccc1-c1cc(NC2CC2)ncn1
AC50 [4]: inconclusive

c1ccc(CN=C(NCc2ccccc2)NCc2ccccc2)cc1
AC50 [9]: 2.06 µM (active)
AC50 [10]: 1.79 µM (active)
AC50 [11]: 21.9 µM (active)

COc1ccc(S(=O)(=O)N2CCC(C(=O)NCC3CCCO3)CC2)cc1C (stereo not drawn)
AC50 [4]: inconclusive
AC50 [6]: 15.8 µM (inconclusive)

Cc1cc(O)c2c(c1)C(=O)[C@@]13Oc4c5c(c(O)c6c(O)cc(C)cc46)C(=O)C[C@H](O)[C@H]5[C@@H]1[C@@H](O)CC(=O)C3=C2O
IC50 [16]: 16.7 µM (active)

CC(C)c1ccc(NC(=O)Nc2nc(C(N)CCc3ccccc3)cs2)cc1 (stereo not drawn)
AC50 [9]: 10.3 µM (active)
AC50 [10]: 5.36 µM (active)
AC50 [11]: 10.6 µM (active)

O=C(Nc1ccccc1[N+](=O)[O-])OCC=Cc1ccccc1
IC50 [7]: 6.3 µM (active)
IC50 [8]: 8.17 µM (active)

Cc1[nH]n(C(N)=S)c(=O)c1/N=N/c1ccc(S(=O)(=O)N2CCCC2)cc1
IC50 [1]: > 66 µM (inactive)
IC50 [2]: > 66 µM (inactive)

COC(=O)c1ccc(/C=N/NC(=O)c2cccc(F)c2)cc1
IC50 [13]: 11.4 µM (active)

COc1ccc(CN(C)C[C@@H]2Oc3c(NC(=O)c4ccc(-c5nccs5)cc4)cccc3C(=O)N([C@@H](C)CO)C[C@H]2C)cc1
AC50 [18]: 3.25 µM (active)

COc1cccc(-c2ccc3c(c2)[C@@H]2[C@@H](CCN2C(=O)C2CCCC2)[C@H](CO)N3)c1
AC50 [18]: 4.88 µM (active)

CO[C@@H]1CN(C)C(=O)c2ccc(NC(=O)C3CC3)cc2OC[C@@H](C)N(Cc2ccccc2)C[C@H]1C
AC50 [18]: 3.33 µM (active)

COc1cccc(NC(=O)N2[C@@H](CO)[C@@H](c3ccccc3)[C@@H]2CNC(C)C)c1
AC50 [18]: 5.06 µM (active)

COCC(=O)N1CCC2(CC1)CN(Cc1cccc(OC)c1)[C@@H](CO)c1[nH]c3cc(OC)ccc3c12
AC50 [18]: 7.42 µM (active)

CC(C)c1ccc2c(c1)c(SC(C)(C)C)c(CC(C)(C)C(=O)O)n2Cc1ccc(Cl)cc1
IC50 [7]: 8.48 µM (active)
IC50 [8]: 10.1 µM (active)
AC50 [12]: 1.58 µM (active)
